In US11548875B2, “Inhibitor compounds for male contraception” (University of Washington, priority 2018, dated 2023):
Counter-ions that a name gives are not always drawn.

Tests used:
ALDH1A1 = molecular target: T1, ALDH1A1 (Homo sapiens, UniProt P00352); assay: Inhibitor screening using purified enzymes: ALDH1A1 activity, retinoic acid production by HPLC; type: biochemical; details: purified enzyme
T1 sequence (P00352 1-501): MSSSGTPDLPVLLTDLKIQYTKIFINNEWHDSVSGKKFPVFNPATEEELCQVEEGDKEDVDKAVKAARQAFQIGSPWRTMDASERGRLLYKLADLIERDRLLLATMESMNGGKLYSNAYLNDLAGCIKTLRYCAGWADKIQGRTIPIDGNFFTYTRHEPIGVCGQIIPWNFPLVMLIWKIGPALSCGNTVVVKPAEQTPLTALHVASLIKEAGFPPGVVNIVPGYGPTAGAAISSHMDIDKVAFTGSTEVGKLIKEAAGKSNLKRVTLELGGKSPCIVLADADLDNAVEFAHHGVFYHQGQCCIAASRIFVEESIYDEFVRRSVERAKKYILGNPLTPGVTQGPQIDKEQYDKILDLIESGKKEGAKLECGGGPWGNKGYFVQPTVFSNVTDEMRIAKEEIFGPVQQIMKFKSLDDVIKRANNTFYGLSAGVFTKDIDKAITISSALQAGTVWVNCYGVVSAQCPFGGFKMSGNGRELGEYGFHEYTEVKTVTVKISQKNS
Text: ALDHs were cloned into bacterial expression vector for in vitro enzyme assays and into mammalian expression vectors for cell-based enzyme assays. Human ALDH1A1 cDNA and human ALDH2 cDNA were purchased from OriGene (SC321535) and Open Biosystems (MHS4771-99611182), respectively. and human ALDH1A2 cDNA was cloned from human testis RNA using RT-PCR (Population Division of the Department of Economic and Social Affairs of the United Nations Secretariat. World Population prospects: the 2008 revision. Available at http://www.un.org/esa/population/ (Retrieved Sep. 30, 2011)). For bacterial expression, an open reading frame of ALDH1A1 and ALDH2 were subcloned into the pETite vector (Lucigen) with a 5′ histidine-tag and that of ALDH1A2 into a pET28 vector (Novagen) with a 3′ histidine-tag. Correct frame and sequences were verified through DNA sequencing (UW DNA sequencing facility). ALDHs were induced with 1 mM IPTG and purified using His.Bind resin (Novagen, San Diego, Calif.) and stored in a buffer containing 20 mM Hepes (pH 8), 150 mM KCl and 1 mM EDTA as previously described (Fierce, Y., de Morais Vieira, M., Piantedosi, R., Wyss, A., Blaner, W. S., and Paik, J. (2008) In vitro and in vivo characterization of retinoid synthesis from beta-carotene. Archives of biochemistry and biophysics 472, 126-138).
ALDH1A1 and ALDH1A2 activity was determined as previously reported (Beedle M T, Stevison F, Zhong G, Topping T, Hogarth C, Isoherranen N, Griswold M D. Sources of All-Trans Retinal Oxidation Independent of the Aldehyde Dehydrogenase 1A Isozymes Exist in the Postnatal Testis. Biol Reprod. 2018 Sep. 21. doi: 10.1093/biolre/ioy200). Briefly, purified enzymes were incubated in a buffer containing 10 mM HEPES buffer (pH 8.0), 150 mM potassium chloride and 2 mM EDTA with 2 mM NAD. Retinoic acid production was determined using HPLC as previously reported (Amory J K, Muller C H, Shimshoni A J, Isoherranen N, Paik J, Moreb J S, Amory D W, Evanoff R, Goldstein A S, Griswold M D. Suppression of spermatogenesis by bisdichloroacetyldiamines is mediated by inhibition of testicular retinoic acid biosynthesis. Journal of Andrology 2011; 32(1):111-119). Inhibitors were diluted in DMSO and added to the reactions. […] For initial screening of inhibitors for ALDH1A2, 1 μg ALDH1A2, 5 μM all-trans-retinal and 5 μM inhibitors were incubated for 15 min at 37° C. […] For this purpose, 0.5 μg ALDH1A2 and […] were incubated for 5 minutes at 37° C. with varying concentrations of inhibitors. To determine specificity toward ALDH1A2, the IC50 for […]

ALDH2 = molecular target: T2, ALDH2 (Homo sapiens, UniProt P05091); assay: Purified ALDH2 assay with propanal, NADH fluorescence; type: biochemical; details: purified enzyme
T2 construct: histidine-tag (N); made in house; host or cells: bacterial expression (pETite vector, IPTG induction)
T2 sequence (P05091 18-517): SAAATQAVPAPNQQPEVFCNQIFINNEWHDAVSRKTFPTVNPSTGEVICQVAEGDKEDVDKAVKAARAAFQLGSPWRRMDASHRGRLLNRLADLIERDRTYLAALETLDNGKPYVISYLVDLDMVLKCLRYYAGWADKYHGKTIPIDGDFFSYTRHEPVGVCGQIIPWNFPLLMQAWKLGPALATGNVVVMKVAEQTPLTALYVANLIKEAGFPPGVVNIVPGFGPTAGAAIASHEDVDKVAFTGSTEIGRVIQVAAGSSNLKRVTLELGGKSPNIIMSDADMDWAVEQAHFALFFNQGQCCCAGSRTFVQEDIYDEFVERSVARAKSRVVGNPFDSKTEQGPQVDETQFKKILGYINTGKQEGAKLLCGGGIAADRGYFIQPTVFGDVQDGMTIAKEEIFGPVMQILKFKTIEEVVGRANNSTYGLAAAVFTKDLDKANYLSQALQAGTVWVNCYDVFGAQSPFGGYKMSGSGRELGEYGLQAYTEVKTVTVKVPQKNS
How it was run: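 His-tagged human ALDH2 expressed in bacteria and purified. 2 μg enzyme incubated with 20 μM propanal and varying inhibitor concentrations at room temperature. Activity read as NADH fluorescence (Ex 350/Em 460 nm), with initial velocity from two consecutive readings over 1 minute.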

| Molecule | IC50 (ALDH2) | IC50 (ALDH1A1) |
| --- | --- | --- |
| 3-(4-Acryloylphenyl)-1-phenyl-1H-pyrazole-4-carbaldehyde [Compound 309] | > 0.16 µM | 0.005 µM |
| 3-{4-[(Chloroacetyl)amino]phenyl}-N-(3-fluorophenyl)-1-phenyl-1H-pyrazole-4-carboxamide [Compound 294] | 24.4 µM | 0.003 µM |
| CCc1ccc(C(=O)N2CCN(c3ccc([N+](=O)[O-])c(N4CCCC4)c3)CC2)s1 [Compound 323, {4-[4-Nitro-3-(pyrrolidin-1-yl)phenyl]piperazin-1-yl}(5-ethylthiophen-2-yl)methanone] | 52 µM | – |
| CCOc1ccsc1C(=O)N1CCN(c2ccc([N+](=O)[O-])c(N3CCCC3)c2)CC1 [Compound 326, {4-[4-Nitro-3-(pyrrolidin-1-yl)phenyl]piperazin-1-yl}(3-ethoxythiophen-2-yl)methanone] | 97.3 µM | – |
| Cc1cc(C(=O)N2CCN(c3ccc([N+](=O)[O-])c(N4CCCC4)c3)CC2)sc1C [Compound 327, {4-[4-Nitro-3-(pyrrolidin-1-yl)phenyl]piperazin-1-yl}(4,5-dimethylthiophen-2-yl)methanone] | 79.8 µM | – |
| COc1ccsc1C(=O)N1CCN(c2ccc([N+](=O)[O-])c(N3CCCC3)c2)CC1 [Compound 329, {4-[4-Nitro-3-(pyrrolidin-1-yl)phenyl]piperazin-1-yl}(3-methoxythiophen-2-yl)methanone] | 86.4 µM | – |
| Nc1ccsc1C(=O)N1CCN(c2ccc([N+](=O)[O-])c(N3CCCC3)c2)CC1 [Compound 331, {4-[4-Nitro-3-(pyrrolidin-1-yl)phenyl]piperazin-1-yl}(3-aminothiophen-2-yl)methanone hydrochloride] | 24.9 µM | – |
| CC(=O)Nc1ccsc1C(=O)N1CCN(c2ccc([N+](=O)[O-])c(N3CCCC3)c2)CC1 [Compound 332] | 58.3 µM | – |
| O=C(c1ccc(F)s1)N1CCN(c2ccc([N+](=O)[O-])c(N3CCCC3)c2)CC1 [Compound 334, {4-[4-Nitro-3-(pyrrolidin-1-yl)phenyl]piperazin-1-yl}(5-fluorothiophen-2-yl)methanone] | > 100 µM | – |
| Cn1cccc1C(=O)N1CCN(c2ccc([N+](=O)[O-])c(N3CCCC3)c2)CC1 [Compound 343, [4-(4-Nitro-3-(pyrrolidin-1-yl)phenyl)piperazin-1-yl](1-methyl-1H-pyrrol-2-yl)methanone] | 97.5 µM | – |
| COc1ccc(C(=O)N2CCN(c3ccc([N+](=O)[O-])c(N4CCCC4)c3)CC2)cc1 [Compound 345, 4-Methoxyphenyl-1-{4-[4-nitro-3-(pyrrolidin-1-yl)phenyl]piperazin-1-yl}methanone] | > 100 µM | – |
| CN(C)c1ccc(C(=O)N2CCN(c3ccc([N+](=O)[O-])c(N4CCCC4)c3)CC2)cc1 [Compound 346, 4-Dimethylaminophenyl-1-{4-[4-nitro-3-(pyrrolidin-1-yl)phenyl]piperazin-1-yl}methanone] | > 100 µM | – |

Further lines, with some results ahead:

| IC50 (ALDH2) | Molecule | IC50 (ALDH1A1) |
| --- | --- | --- |
| 18.2 µM | O=Cc1cn(-c2ccccc2)nc1-c1ccc(O)cc1 [Cmpd 34] | – |
| 20.9 µM | CS(=O)(=O)c1ccc(-c2nn(-c3ccccc3)cc2C(=O)Nc2cccc(F)c2)cc1 [Compound 178, 3-(4-(Methylsulfonyl)phenyl)-N-(3-fluorophenyl)-1-phenyl-1H-pyrazole-4-carboxamide] | – |
| 15.5 µM | CS(=O)(=O)c1ccc(-c2nn(-c3ccccc3)cc2C(=O)Nc2cccc(O)c2)cc1 [Compound 211, 3-(4-(Methylsulfonyl)phenyl)-N-(3-hydroxyphenyl)-1-phenyl-1H-pyrazole-4-carboxamide] | – |
| > 25 µM | CS(=O)(=O)c1ccc(-c2nn(-c3ccccc3)cc2C(=O)Nc2cccc(Cl)c2)cc1 [Compound 219, 3-(4-(Methylsulfonyl)phenyl)-N-(3-chlorophenyl)-1-phenyl-1H-pyrazole-4-carboxamide] | – |
| 133 µM | CCS(=O)(=O)c1ccc(-c2nn(-c3ccccc3)cc2C(=O)Nc2cccc(F)c2)cc1 [Compound 223, 3-(4-(Ethylsulfonyl)phenyl)-N-(3-fluorophenyl)-1-phenyl-1H-pyrazole-4-carboxamide] | – |
| 67.3 µM | CS(=O)(=O)c1ccc(-c2nn(-c3ccccc3)cc2C(=O)Nc2cccc(F)c2O)cc1 [Compound 231, N-(3-Fluoro-2-hydroxyphenyl)-3-[4-(methylsulfonyl)phenyl]-1-phenyl-1H-pyrazole-4-carboxamide] | – |
| 87.2 µM | CS(=O)(=O)c1ccc(-c2nn(-c3ccc(Cl)cc3)cc2C(=O)Nc2ccccc2O)cc1 [Compound 233, N-(2-Hydroxyphenyl)-3-[4-(methylsulfonyl)phenyl]-1-(4-chloropheny)-1H-pyrazole-4-carboxamide] | – |
| 16.6 µM | CS(=O)(=O)c1ccc(-c2nn(-c3ccc(F)cc3)cc2C(=O)Nc2cccc(F)c2)cc1 [Compound 241, N-(3-Fluorophenyl)-3-[4-(methylsulfonyl)phenyl]-1-(4-fluorophenyl)-1H-pyrazole-4-carboxamide] | – |
| 100 µM | CS(=O)(=O)c1ccc(-c2nn(-c3ccc(OC(F)(F)F)cc3)cc2C(=O)Nc2cccc(F)c2)cc1 [Compound 258, N-(3-Fluorophenyl)-1-(4-trifluoromethoxypheny)-3-[4-(methylsulfonyl)phenyl]-1H-pyrazole-4-carboxamide] | – |
| 16.7 µM | CS(=O)(=O)c1ccc(-c2nn(-c3ccc(C#N)cc3)cc2C(=O)Nc2cccc(C(F)(F)F)c2)cc1 [Compound 262, 1-(4-Cyanophenyl)-N-(3-trifluoromethylphenyl)-3-[4-(methylsulfonyl)phenyl]-1H-pyrazole-4-carboxamide] | – |
| 100 µM | CS(=O)(=O)c1ccc(-c2nn(-c3cccc(F)c3)cc2C(=O)Nc2cccc(C(F)(F)F)c2)cc1 [Compound 266, 1-(3-Fluorophenyl)-N-(3-trifluoromethylphenyl)-3-[4-(methylsulfonyl)phenyl]-1H-pyrazole-4-carboxamide] | – |
| 83.7 µM | CS(=O)(=O)c1ccc(-c2nn(-c3cccc(C#N)c3)cc2C(=O)Nc2cccc(F)c2)cc1 [Compound 268, 1-(3-Cyanophenyl)-N-(3-fluorophenyl)-3-[4-(methylsulfonyl)phenyl]-1H-pyrazole-4-carboxamide] | – |
| 67.7 µM | CS(=O)(=O)c1ccc(-c2nn(-c3cccc(C#N)c3)cc2C(=O)Nc2ccc(F)c(F)c2)cc1 [Compound 269, 1-(3-Cyanophenyl)-N-(3,4-difluorophenyl)-3-[4-(methylsulfonyl)phenyl]-1H-pyrazole-4-carboxamide] | – |
| > 100 µM | O=C(c1ccc(Cl)cc1)N1CCN(c2ccc([N+](=O)[O-])c(N3CCCC3)c2)CC1 [Compound 342, 4-Chlorophenyl-1-{4-[4-nitro-3-(pyrrolidin-1-yl)phenyl]piperazin-1-yl}methanone] | – |
